Measured values taken from US9169268B2, “Use of 7-alkoxy fangchinoline compounds in preventing, alleviating and/or treating depression” (Peking University, priority 2012, dated 2015).

Legend:
[1] = system: chronic unpredictable stress (CUS) model in rats; assay: Sucrose solution preference in CUS model in rats; format: in vivo; conditions: 7 days
Protocol: (§1) The chronic unpredictable stress model is usually used as a depression model. The experimental method is as follows. Stimulation includes forced swimming (10° C., 6 min), tail clamping (1 cm from the tail tip, 1 min), water deprivation (24 h), fasting (24 h), isolated housing (24 h), tail suspension (1 h), immobility (2 h), high-speed horizontal oscillation (120 times/min, 1 h), foot shock for 45 minutes (mean 1 mA, time course 1 s, once/min). These stressors were randomly scheduled over a one-week period and repeated throughout the 23-day experiment. The non-stress control group was housed under normal conditions. Time: between 9:00 a.m. and 2:00 p.m. Since Day 15, the animals in each group were daily intragastrically administered with the subject medicament and double distilled water based on body weight (blank group and CUS model group) respectively, 60 minutes before the stress. […] Behavior and sleep electroencephalogram analyses were carried out on Day 22-23 of the stress. On Day 21, 60 minutes after the final administration, a sucrose solution intake test was carried out and sleep electroencephalogram was recorded simultaneously. On Day 22, EPM and forced swimming tests were carried out.

[2] = system: chronic unpredictable stress (CUS) model in rats; assay: Autonomous movement in CUS model in rats; format: in vivo; conditions: 7 days
Protocol: as §1

[3] = system: forced swimming model in mice; assay: Forced swimming model in mice; format: in vivo
Protocol: A desperate behavior status of human beings may be simulated by an immobility status in a forced swimming model in mice. The mice were put into a cylindrical glass jar (height 20 cm, diameter 10 cm) with a water depth of 15 cm and water temperature of 25±1° C. The mice were allowed to pre-swim for 15 minutes before the experiment, and then were taken out, wiped dry at a warm place, and sent back into cages. In 24 hours, the mice received an intragastric administration; and 60 minutes after the administration, the mice were put into the above-mentioned environment. The accumulative immobility time of the mice in the jar during the 5-minute period of time after six minutes of swimming was measured. A decrease in immobility time was taken as evaluation index.

[4] = molecular target: GSK-3β (Homo sapiens, UniProt P49841); assay: GSK-3β activity assay (Z′-LYTE); format: biochemical; conditions: n = 3; read-out: Mean EC50 in the inhibition of GSK-3β activity
Protocol: The GSK-3β phosphorylation level was determined by using a Z′-LYTE assay (Life Technologies). The assay was performed in a 384-well plate. The wells of the testing plate were divided into blank control wells (without the enzyme), enzyme control wells (without the testing substance), and testing wells (with the enzyme and the testing substance at various concentrations). The inhibition rate of the testing substance is expressed as: inhibition %=(E−S)/(E−B)×100, wherein E is the average emission ratio of enzyme control wells; B is the average emission ratio of blank control wells; S is the emission ratio of the testing sample wells. The median effective concentration of each compound (EC50 μM) was calculated by using the resultant inhibition rate of each sample at various concentrations.

[5] = Serum AST and ALT in mice after 14 days of intragastric administration; format: in vivo; conditions: mouse, in vivo, 60 mg/kg/day
Protocol: Blood was collected from epicanthal, stood at room temperature for about 2 hours, and centrifuged for 12 minutes at 3000 r/min after coagulation. The serum was removed and centrifuged again. Alanine transaminase (ALT) and aspartate transaminase (AST) levels were determined

[6] = system: chronic unpredictable stress (CUS) model in rats; assay: Elevated plus-maze (EPM) anxiety test in CUS model in rats; format: in vivo
Protocol: as §1

[7] = system: GSK-3β phosphorylation level; assay: GSK-3β phosphorylation level in mouse brain regions (Western blot); format: in vivo; conditions: mice
Protocol: ICR mice were intragastrically administered of subject medicaments and vehicle. One hour later, brains of those treated mice were obtained after decapitation. Prefrontal lobe cortex, hipocampus, corpus striatum and hypothalamus were isolated and collected respectively. Then protein electrophoresis (Western blot) was carried out with each sample.

[8] = system: chronic unpredictable stress (CUS) model in rats; assay: Sleep electroencephalogram in CUS depression model in rats; format: in vivo
Protocol: The chronic unpredictable stress model is usually used as a depression model. The experimental method is as follows. Stimulation includes forced swimming (10° C., 6 min), tail clamping (1 cm from the tail tip, 1 min), water deprivation (24 h), fasting (24 h), isolated housing (24 h), tail suspension (1 h), immobility (2 h), high-speed horizontal oscillation (120 times/min, 1 h), foot shock for 45 minutes (mean 1 mA, time course 1 s, once/min). These stressors were randomly scheduled over a one-week period and repeated throughout the 23-day experiment. The non-stress control group was housed under normal conditions. Time: between 9:00 a.m. and 2:00 p.m. Since Day 15, the animals in each group were daily intragastrically administered with the subject medicament and double distilled water based on body weight (blank group and CUS model group) respectively, 60 minutes before the stress. Imipramine (intraperitoneally, IP) was adopted as a positive control. Behavior and sleep electroencephalogram analyses were carried out on Day 22-23 of the stress. On Day 21, 60 minutes after the final administration, a sucrose solution intake test was carried out and sleep electroencephalogram was recorded simultaneously. On Day 22, EPM and forced swimming tests were carried out.
Result 3: Sleep disturbance is one of the most common symptoms of neuropsychiatry. From a view of therapeutics, sleep disturbance is one of the most distressful events in patients suffered from nervous diseases and mental illness, especially in depression, and also one of major adverse events that may exacerbate the conditions of nervous disease and mental illness and impede the recovery in patients. For example, patients who are suffering from depression associated with insomnia may have an apparently higher incidence of a suicidal behavior, as compared with a non-insomnia group. Sleep disturbance in nervous and mental diseases can be simulated by using a CUS model in rats. […] Therefore, YH-200 could be useful for treating and ameliorating sleep disturbance in a patient suffering from depression (see, Table 4).

[9] = Day 0 (baseline, before dosing)

GSK-3β, sequence (P49841 whole entry): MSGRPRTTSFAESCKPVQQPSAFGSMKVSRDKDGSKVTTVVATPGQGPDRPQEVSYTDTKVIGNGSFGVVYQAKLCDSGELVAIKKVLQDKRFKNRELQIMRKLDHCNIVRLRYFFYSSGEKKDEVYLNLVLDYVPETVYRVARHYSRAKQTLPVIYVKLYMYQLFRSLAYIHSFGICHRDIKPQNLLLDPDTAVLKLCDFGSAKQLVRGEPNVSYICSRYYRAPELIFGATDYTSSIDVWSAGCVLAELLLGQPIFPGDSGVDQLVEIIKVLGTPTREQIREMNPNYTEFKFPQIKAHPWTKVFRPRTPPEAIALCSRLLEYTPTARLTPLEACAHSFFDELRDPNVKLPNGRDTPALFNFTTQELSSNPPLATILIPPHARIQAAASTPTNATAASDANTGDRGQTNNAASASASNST

EC50 [4]: 860 nM
melting point: 109.5 to 111 °C
Compound: CCOc1c(OC)cc2c3c1Oc1cc4c(cc1OC)CCN(C)C4Cc1ccc(cc1)Oc1cc(ccc1OC)CC3N(C)CC2 (stereo not shown) [Compound 3, 7-ethoxy fangchinoline]
Sucrose solution preference ([1]; 7.5 mg/kg intragastric daily): 82.3 ± 3.3^##,$$ %
Sucrose solution preference ([1]; 15 mg/kg intragastric daily): 93.6 ± 4.6^##,$$ %
Sucrose solution preference ([1]; 30 mg/kg intragastric daily): 98.1 ± 3.7^##,$$ %
Autonomous movement Distance ([2]; 7.5 mg/kg intragastric daily): 13612.65 ± 792.22^##,$$ mm
Autonomous movement Speed ([2]; 7.5 mg/kg intragastric daily): 45.38 ± 2.64^##,$$ mm/second
Autonomous movement Distance ([2]; 15 mg/kg intragastric daily): 14409.83 ± 664.54^##,$$ mm
Autonomous movement Speed ([2]; 15 mg/kg intragastric daily): 48.03 ± 4.02^##,$$ mm/second
Autonomous movement Distance ([2]; 30 mg/kg intragastric daily): 14636.14 ± 812.31^##,$$ mm
Autonomous movement Speed ([2]; 30 mg/kg intragastric daily): 48.78 ± 5.36^##,$$ mm/second
anti-depression effect with 5-HT1A receptor antagonist pMPPI ([3]; FIG. 2, n=12-15): could be inhibited
reduction of immobility time and extension of immobility latency period with 5-HT2A receptor agonist DOI ([3]; FIG. 4, n=12-15): could be inhibited
ALT [5]: 82.1 ± 16.4 U/L
AST [5]: 102.3 ± 14.5 U/L
AST/ALT [5]: 1.25 ± 0.18
Percentage of entries into open arms relative to total entries into arms ([6]; 7.5 mg/kg intragastric daily): 57.2 ± 1.8^##,$$ %
Percentage of residence time in open arms ([6]; 7.5 mg/kg intragastric daily): 69.1 ± 2.4^##,$$ %
Percentage of entries into open arms relative to total entries into arms ([6]; 15 mg/kg intragastric daily): 59.7 ± 2.2^##,$$ %
Percentage of residence time in open arms ([6]; 15 mg/kg intragastric daily): 72.3 ± 3.6^##,$$ %
Percentage of entries into open arms relative to total entries into arms ([6]; 30 mg/kg intragastric daily): 60.2 ± 2.0^##,$$ %
Percentage of residence time in open arms ([6]; 30 mg/kg intragastric daily): 71.8 ± 3.2^##,$$ %
p-GSK-3β level ([7]; 30 mg/kg intragastric, 1 h, hypothalamus, versus blank control): evidently increased
influence on phosphorylated GSK-3β (p-GSK-3β) and total-GSK-3β ([7]; 30 mg/kg intragastric, 1 h, prefrontal lobe cortex, hipocampus and corpus striatum): no evident influence
total GSK-3β level ([7]; 60 mg/kg intragastric, 1 h, four brain sections): no influence
p-GSK-3β level ([7]; 60 mg/kg intragastric, 1 h, prefrontal lobe cortex, hipocampus, corpus striatum and hypothalamus): significantly increased
enhancement of GSK-3β phosphorylation level with pMPPI given intraperitoneally 15 minutes before ([7]; FIG. 3, prefrontal lobe cortex, hipocampus, corpus striatum and hypothalamus, n=6): could evidently inhibit
enhancement of GSK-3β phosphorylation level with 5-HT2A receptor agonist DOI ([7]; FIG. 5, prefrontal lobe cortex, hipocampus, corpus striatum and hypothalamus, n=6): inhibited
effect on the sleep disturbance ([8]; 30 mg/kg p.o.): evident amelioration effect
Deep sleep (SWS) Time [8, 9]: 39.31 ± 10.22 min
NREM sleep Time [8, 9]: 174.44 ± 8.35 min
Rapid eye movement (REM) sleep Time [8, 9]: 37.95 ± 6.28 min
Total sleep Time [8, 9]: 212.40 ± 12.65 min
Deep sleep (SWS) Time ([8]; Day 21, 30 mg/kg p.o.): 48.18 ± 13.77 min
NREM sleep Time ([8]; Day 21, 30 mg/kg p.o.): 165.27 ± 7.97 min
Rapid eye movement (REM) sleep Time ([8]; Day 21, 30 mg/kg p.o.): 34.06 ± 1.75 min
Total sleep Time ([8]; Day 21, 30 mg/kg p.o.): 199.33 ± 9.11 min
